Test results reported in PMC3872530 (Molecular microbiology, 2013).

Experiments:
Assay in all cases: whole-cell EPR of [2Fe-2S] cluster
Assay type in all cases: cell-based
[1] = target: T1, EcSoxR (Escherichia coli, UniProt P0ACS2); conditions: oxidant, 40 min, E. coli XA90, EPR at 15 K
T1 sequence (P0ACS2 1-154): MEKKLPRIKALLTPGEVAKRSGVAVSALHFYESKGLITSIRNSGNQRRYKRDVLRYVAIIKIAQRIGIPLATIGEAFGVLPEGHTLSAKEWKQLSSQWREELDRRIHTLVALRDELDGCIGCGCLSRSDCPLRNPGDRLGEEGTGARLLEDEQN

[2] = target: PaSoxR (Pseudomonas aeruginosa, UniProt Q51506); conditions: oxidant, 40 min, E. coli XA90, EPR at 15 K
Sequence of PaSoxR (Q51506 whole entry): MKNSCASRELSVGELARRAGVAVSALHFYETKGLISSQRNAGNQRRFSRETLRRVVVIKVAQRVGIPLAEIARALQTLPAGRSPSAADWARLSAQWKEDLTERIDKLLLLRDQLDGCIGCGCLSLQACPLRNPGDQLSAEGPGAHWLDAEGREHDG

[3] = target: T2, ScSoxR (Streptomyces coelicolor, UniProt Q9S255); conditions: oxidant; 50 uM, 40 min, E. coli XA90, EPR at 15 K
T2 sequence (Q9S255 1-175): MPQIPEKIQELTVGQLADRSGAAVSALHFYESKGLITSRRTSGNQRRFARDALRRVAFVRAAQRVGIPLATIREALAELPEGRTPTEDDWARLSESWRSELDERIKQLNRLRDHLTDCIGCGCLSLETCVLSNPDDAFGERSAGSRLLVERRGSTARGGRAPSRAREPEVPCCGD

| Compound | whole-cell EPR of [2Fe-2S] cluster ([1]; 100 uM) | whole-cell EPR of [2Fe-2S] cluster ([2]; 100 uM, partial effect) | whole-cell EPR of [2Fe-2S] cluster [3] | whole-cell EPR of [2Fe-2S] cluster ([1]; 50 uM) | whole-cell EPR of [2Fe-2S] cluster ([2]; 50 uM) |
| --- | --- | --- | --- | --- | --- |
| C[n+]1ccc(-c2cc[n+](C)cc2)cc1 [PQ, paraquat] | The spectra disappeared upon treatment with PQ and PMS | PQ was partially effective in oxidizing the [2Fe-2S] cluster |  |  |  |
| C[n+]1c2ccccc2nc2ccccc21 [PMS, phenazine methosulfate] |  |  | The cluster was oxidized to its EPR-silent state when the cells were treated with PMS | The spectra disappeared upon treatment with PQ and PMS | PMS always silenced the spectral peaks |
